In US7662838B2, “Use of a deoxynojirimycin derivative or a pharmaceutically salt thereof” (Genzyme Corporation, priority 2003, dated 2010):
Where two headings read alike, the source gives them in different places. Blank lines part the entries; values can stand above or below the compound they belong to.

Key:
sucrase = target: T1, sucrase (Rattus norvegicus, UniProt P23739); assay: In vitro sucrase activity, intestinal membrane preparation; assay type: biochemical
T1 construct: Membrane homogenates were prepared by extensive washing and homogenization; from tissue; host or cells: rat intestinal membrane homogenate
T1 sequence (P23739 1014-1841 limits assumed): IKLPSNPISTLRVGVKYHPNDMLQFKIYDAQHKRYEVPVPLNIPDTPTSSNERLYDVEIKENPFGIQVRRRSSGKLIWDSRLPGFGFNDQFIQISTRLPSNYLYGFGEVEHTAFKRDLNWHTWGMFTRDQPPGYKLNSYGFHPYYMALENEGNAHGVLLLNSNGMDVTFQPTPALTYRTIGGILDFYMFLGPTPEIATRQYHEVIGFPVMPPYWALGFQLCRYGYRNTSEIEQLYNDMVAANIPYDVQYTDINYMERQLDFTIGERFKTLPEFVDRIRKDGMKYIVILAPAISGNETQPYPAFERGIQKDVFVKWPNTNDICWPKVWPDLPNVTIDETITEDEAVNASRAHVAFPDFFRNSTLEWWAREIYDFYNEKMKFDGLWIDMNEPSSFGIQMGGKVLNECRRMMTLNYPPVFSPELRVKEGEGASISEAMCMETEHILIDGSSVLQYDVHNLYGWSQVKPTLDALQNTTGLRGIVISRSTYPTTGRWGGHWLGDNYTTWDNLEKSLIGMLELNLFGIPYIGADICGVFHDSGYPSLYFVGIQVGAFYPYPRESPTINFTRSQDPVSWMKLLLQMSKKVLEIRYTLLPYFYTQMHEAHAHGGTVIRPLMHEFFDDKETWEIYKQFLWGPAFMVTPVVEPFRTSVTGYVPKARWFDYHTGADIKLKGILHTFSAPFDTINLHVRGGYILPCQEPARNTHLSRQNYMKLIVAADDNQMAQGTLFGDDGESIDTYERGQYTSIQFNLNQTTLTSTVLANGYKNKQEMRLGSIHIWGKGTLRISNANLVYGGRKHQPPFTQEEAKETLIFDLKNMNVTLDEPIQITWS
T1 sequence (P23739 1-1013 partner limits assumed): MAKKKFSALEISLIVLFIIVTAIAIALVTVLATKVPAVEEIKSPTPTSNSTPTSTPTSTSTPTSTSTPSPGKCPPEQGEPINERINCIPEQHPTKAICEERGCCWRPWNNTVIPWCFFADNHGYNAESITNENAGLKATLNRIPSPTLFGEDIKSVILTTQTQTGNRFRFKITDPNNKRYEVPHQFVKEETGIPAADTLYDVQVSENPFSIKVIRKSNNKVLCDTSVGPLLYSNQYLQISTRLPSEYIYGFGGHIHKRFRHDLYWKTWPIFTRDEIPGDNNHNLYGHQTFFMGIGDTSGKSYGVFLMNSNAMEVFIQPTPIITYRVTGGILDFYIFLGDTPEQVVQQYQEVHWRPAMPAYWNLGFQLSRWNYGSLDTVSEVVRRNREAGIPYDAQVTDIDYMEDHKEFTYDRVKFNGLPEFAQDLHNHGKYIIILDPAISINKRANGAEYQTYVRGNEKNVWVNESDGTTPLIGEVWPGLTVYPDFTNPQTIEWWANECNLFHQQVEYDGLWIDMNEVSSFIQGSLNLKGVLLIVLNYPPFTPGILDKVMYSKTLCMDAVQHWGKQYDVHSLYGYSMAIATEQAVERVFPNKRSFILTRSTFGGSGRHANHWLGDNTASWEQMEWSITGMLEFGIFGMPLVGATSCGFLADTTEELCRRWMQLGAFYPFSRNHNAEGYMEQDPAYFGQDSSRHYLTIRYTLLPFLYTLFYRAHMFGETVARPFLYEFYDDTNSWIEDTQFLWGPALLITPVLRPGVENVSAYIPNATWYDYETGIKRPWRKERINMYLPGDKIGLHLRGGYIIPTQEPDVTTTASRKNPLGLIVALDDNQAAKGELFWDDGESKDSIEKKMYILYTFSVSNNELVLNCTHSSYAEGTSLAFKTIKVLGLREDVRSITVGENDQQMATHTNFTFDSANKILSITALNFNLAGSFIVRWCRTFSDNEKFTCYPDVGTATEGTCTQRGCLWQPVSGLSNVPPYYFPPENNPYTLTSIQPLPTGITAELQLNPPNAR

[1] = target: glycan trimming α-glucosidase; conditions: cited from earlier work
[2] = many individuals; cited from earlier work
FVB and C57BL/6J mice = assay: Tissue (glyco)sphingolipid levels in orally treated FVB and C57BL/6J mice (HPLC, TLC)
lactase = target: T2, lactase (Rattus norvegicus, UniProt Q02401); assay: In vitro lactase activity, intestinal membrane preparation; assay type: biochemical; conditions: rat intestinal membranes; read-out: IC50 value for inhibition of Lactase
T2 construct: Membrane homogenates were prepared by extensive washing and homogenization; from tissue; host or cells: rat intestinal membrane homogenate
T2 sequence (Q02401 868-1928): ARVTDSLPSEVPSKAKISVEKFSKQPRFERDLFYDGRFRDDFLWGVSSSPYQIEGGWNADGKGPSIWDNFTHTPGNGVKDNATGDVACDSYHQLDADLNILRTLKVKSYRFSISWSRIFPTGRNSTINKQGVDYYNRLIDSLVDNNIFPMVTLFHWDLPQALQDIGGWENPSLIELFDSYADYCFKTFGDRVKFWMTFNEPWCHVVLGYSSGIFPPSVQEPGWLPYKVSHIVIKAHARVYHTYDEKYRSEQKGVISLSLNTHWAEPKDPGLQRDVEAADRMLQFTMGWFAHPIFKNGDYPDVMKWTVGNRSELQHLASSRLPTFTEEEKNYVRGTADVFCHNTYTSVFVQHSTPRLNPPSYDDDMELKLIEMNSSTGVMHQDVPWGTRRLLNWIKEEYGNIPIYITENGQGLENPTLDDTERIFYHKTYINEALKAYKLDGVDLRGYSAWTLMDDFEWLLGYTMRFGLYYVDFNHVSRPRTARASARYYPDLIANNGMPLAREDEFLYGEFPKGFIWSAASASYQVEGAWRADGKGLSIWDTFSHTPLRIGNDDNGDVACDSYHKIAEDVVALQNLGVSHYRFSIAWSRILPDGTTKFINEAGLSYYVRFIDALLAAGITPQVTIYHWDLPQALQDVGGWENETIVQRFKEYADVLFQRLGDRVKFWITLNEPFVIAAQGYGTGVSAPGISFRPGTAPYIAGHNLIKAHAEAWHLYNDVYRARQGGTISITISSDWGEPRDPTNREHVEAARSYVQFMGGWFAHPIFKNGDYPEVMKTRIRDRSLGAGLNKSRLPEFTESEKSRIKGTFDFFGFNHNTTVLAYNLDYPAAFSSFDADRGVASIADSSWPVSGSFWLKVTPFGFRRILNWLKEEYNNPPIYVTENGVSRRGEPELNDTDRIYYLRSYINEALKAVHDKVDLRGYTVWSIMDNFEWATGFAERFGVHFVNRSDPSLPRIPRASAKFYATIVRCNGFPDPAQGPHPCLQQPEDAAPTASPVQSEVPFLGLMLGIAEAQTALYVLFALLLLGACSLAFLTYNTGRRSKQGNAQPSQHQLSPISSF

[3] = Tolerability in animal studies; assay type: in vivo
[4] = test system: C57BL/6J mice (ob-/-, db-/-, +/+); assay: Oral treatment of obese, diabetes and normal C57BL/6J mice: glucose and water intake; assay type: in vivo
Method: Plasma glucose, water intake and food intake were monitored.
Mice (obese-lep^ob (C57B1/6)laHsd-Lep^ob); diabetes-lepr^db (C57B1/6KsOlaHsd—Lepr^db); wildtype (C57B1/6J OlaHsd) and wild type FVB (FVB/NHanHsd) were obtained from Harlan Nederland. Animals were fed with AM-II diet with or without N-(5-adamantane-1-yl-methoxy-pentyl)deoxynojirimycin (Hope Farms Netherlands). Mice were kept in groups of five in each cage. Water consumption and food intake were determined three times weekly per cage. Body weight of individual animals was determined three times weekly. Glucose in plasma was determined with the GOD-PAP method (Merck), and glucose in urine was determined using […] test strips (Roche).

[5] = Pharmacological features (bioavailability, metabolism); conditions: in vivo
[6] = Plasma level and tissue penetration after oral dosing; assay type: in vivo, mice
surface GM3 = assay: Surface GM3 expression by FACS after 3 days exposure of cells; assay type: cell-based; conditions: 72 h, cells exposed for 3 days, read-out: IC50 value for surface GM3 reduction
[7] = test system: cultured adipocytes and muscle cells; assay: Insulin signaling in cultured adipocytes and muscle cells (GLUT4, deoxyglucose uptake); assay type: cell-based
Text: Initial experiments already confirmed this effect.

debranching enzyme = target: T3, debranching enzyme (Homo sapiens, UniProt P35573); assay: Debranching enzyme activity, glucose release from limit dextrin, erythrocyte homogenate; assay type: biochemical; conditions: read-out: IC50 value for inhibition of Debranching enzyme
T3 construct: As enzyme source erythrocytes are used since they contain no other enzymes that can degrade glycogen or limit dextrin; from tissue; host or cells: erythrocyte homogenate
T3 sequence (P35573 whole entry): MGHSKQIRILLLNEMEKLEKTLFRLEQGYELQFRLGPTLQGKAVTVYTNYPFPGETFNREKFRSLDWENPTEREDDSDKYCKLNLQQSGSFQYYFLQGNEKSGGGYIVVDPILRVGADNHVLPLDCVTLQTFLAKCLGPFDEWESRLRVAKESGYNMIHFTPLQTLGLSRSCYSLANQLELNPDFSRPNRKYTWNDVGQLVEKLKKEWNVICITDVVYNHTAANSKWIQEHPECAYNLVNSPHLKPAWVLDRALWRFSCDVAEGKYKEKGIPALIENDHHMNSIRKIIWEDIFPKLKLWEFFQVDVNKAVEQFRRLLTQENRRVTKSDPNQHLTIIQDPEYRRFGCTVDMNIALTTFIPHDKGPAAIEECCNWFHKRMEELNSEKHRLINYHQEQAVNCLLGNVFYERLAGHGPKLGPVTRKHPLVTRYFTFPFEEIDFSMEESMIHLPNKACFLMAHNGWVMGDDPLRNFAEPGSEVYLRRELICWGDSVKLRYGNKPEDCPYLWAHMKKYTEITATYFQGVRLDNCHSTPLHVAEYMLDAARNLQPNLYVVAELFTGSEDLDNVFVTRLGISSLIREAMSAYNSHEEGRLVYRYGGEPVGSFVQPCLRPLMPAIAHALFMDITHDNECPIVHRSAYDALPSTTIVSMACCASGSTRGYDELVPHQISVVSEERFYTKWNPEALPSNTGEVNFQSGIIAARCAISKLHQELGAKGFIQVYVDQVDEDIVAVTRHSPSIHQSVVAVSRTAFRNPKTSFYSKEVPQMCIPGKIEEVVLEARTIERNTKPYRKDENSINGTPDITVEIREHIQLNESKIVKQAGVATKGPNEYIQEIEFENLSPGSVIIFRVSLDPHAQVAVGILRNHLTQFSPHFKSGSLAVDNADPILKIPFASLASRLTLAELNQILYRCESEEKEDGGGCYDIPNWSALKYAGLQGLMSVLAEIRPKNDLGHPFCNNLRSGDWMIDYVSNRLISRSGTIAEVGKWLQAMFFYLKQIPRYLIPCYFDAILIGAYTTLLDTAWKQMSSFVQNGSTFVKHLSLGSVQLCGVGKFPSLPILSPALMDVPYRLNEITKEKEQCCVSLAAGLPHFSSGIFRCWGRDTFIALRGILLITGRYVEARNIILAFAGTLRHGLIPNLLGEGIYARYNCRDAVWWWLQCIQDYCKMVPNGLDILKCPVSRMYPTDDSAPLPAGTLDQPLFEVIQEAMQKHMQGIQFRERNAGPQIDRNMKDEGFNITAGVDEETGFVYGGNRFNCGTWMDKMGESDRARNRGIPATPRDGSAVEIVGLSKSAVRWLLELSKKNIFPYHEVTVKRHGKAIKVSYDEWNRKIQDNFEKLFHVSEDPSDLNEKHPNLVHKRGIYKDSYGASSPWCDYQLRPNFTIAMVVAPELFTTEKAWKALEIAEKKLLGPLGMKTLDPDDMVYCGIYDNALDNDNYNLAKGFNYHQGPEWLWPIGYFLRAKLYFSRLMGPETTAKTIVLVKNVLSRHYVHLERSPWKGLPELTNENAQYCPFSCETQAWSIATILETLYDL

[8] = rat intestinal membranes, read-out: IC50 value for inhibition of Sucrase
[9] = intestinal sucrase, read-out: IC50 value for sucrase
[10] = obese and diabetes mice, administration by food, dose-dependent

IC50 (sucrase; [8]): 500 µM
SMILES: CCCCN1C[C@H](O)[C@@H](O)[C@H](O)[C@H]1CO [N-butyl-deoxynojirimycin]
Ki glycan trimming α-glucosidase in vitro [1]: sub-μM

IC50 (sucrase; [9]): < 5000 µM | IC50 (sucrase; [8]): 100 µM
SMILES: OCCN1C[C@H](O)[C@@H](O)[C@H](O)[C@H]1CO [N-hydroxyethyl-deoxynojirimycin]
tolerability (intestinal complaints) [2]: not very well tolerated

SMILES: C[C@H]1O[C@H](O[C@H]2[C@H](O)[C@@H](O)[C@@H](O[C@H]3[C@H](O)[C@@H](O)C(O)O[C@@H]3CO)O[C@@H]2CO)[C@H](O)[C@@H](O)[C@@H]1N[C@H]1C=C(CO)[C@@H](O)[C@H](O)[C@H]1O (some centres unmarked) [Acarbose]
tolerability (intestinal complaints) [2]: not very well tolerated

IC50 (sucrase; [9]): 4500 µM | IC50 (lactase): 18000 µM | metabolism [5]: lack of metabolism | oral bioavailability ([5]; po): good oral bioavailability | concentration at 4 weeks ([6]; mouse, plasma, oral, 4 weeks 100 mg/kg orally, enzymatic method, read-out: plasma levels): ~1000 nM | brain penetration ([6]; oral administration): poorly penetrates in the brain | IC50 (surface GM3): ~0.25 µM | IC50 (debranching enzyme): > 500 µM
SMILES: OC[C@@H]1[C@@H](O)[C@H](O)[C@@H](O)CN1CCCCCOCC12CC3CC(CC(C3)C1)C2 [AMP-DNM, N-(5-adamantane-1-yl-methoxy-pentyl)deoxynojirimycin]
brain gangliosides or sulfatide (FVB and C57BL/6J mice; TLC, brain): No changes | liver GM3 (FVB and C57BL/6J mice; TLC, liver, 2 wks 100 mg/kg): marked reduction | muscle GM3 (FVB and C57BL/6J mice; TLC, muscle): reduction | brain galactosylceramide concentration (FVB and C57BL/6J mice; brain, 100 mg/kg oral): No changes | liver glucosylceramide reduced by (FVB and C57BL/6J mice; liver, 100 mg/kg oral): 80% | ceramide concentration (FVB and C57BL/6J mice; liver, muscle and brain, 100 mg/kg oral): No changes | muscle glucosylceramide reduced by (FVB and C57BL/6J mice; muscle, 100 mg/kg oral): 50% | overt pathology in animal studies [3]: does not result in any overt pathology | tolerability in animal studies [3]: well tolerated | urinary glucose ([4]; after 2 weeks treatment, particularly ob-/ob- mice at highest dose): major reduction | blood glucose ([4]; normal mice): small reduction | blood glucose [4, 10]: reductions | water intake [4, 10]: reductions | surface expression of GLUT4 ([7]; adipocytes): increased | deoxyglucose uptake ([7]; cultured adipocytes and muscle cells): increased
